ChEMBL document CHEMBL1201862, “PubChem BioAssay data set” (2004)
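Tested at 5 concentrations; 48 h exposure; 96-well plates; endpoints linearly interpolated, else capped at highest concentration. GI50: concentration for 50% inhibition of growth.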 Active and inactive are the calls of the source. No stated cut-off is given here; in the data, active = GI50 up to about 1.1 µM and inactive = higher.

Experiments:
Assay in all cases: DTP human tumour cell line panel, 48 h
UO-31 = tested on: UO-31
NCI-H460 = tested on: NCI-H460
HL-60 = tested on: HL-60
M14 = tested on: M14
HOP-62 = tested on: HOP-62
OVCAR-8 = tested on: OVCAR-8
NCI-H226 = tested on: NCI-H226
KM-20L2 = tested on: KM-20L2
SF-295 = tested on: SF-295
SNB-75 = tested on: SNB-75
SF-539 = tested on: SF-539
A549 = tested on: A549
HCT-116 = tested on: HCT-116
TK-10 = tested on: TK-10
HCT-15 = tested on: HCT-15
LXFL 529 = tested on: LXFL 529
SR = tested on: SR
COLO 205 = tested on: COLO 205
ACHN = tested on: ACHN
U-251 = tested on: U-251
M19-MEL = tested on: M19-MEL
CCRF-CEM = tested on: CCRF-CEM
NCI-H522 = tested on: NCI-H522
EKVX = tested on: EKVX
NCI-H23 = tested on: NCI-H23
786-0 = tested on: 786-0
SF-268 = tested on: SF-268
SN12C = tested on: SN12C
DLD-1 = tested on: DLD-1
SNB-19 = tested on: SNB-19
SK-OV-3 = tested on: SK-OV-3
LOX IMVI = tested on: LOX IMVI
DMS-273 = tested on: DMS-273
UACC-62 = tested on: UACC-62
MOLT-4 = tested on: MOLT-4
OVCAR-3 = tested on: OVCAR-3
RXF 393 = tested on: RXF 393
UACC-257 = tested on: UACC-257
HCC 2998 = tested on: HCC 2998
KM12 = tested on: KM12
SK-MEL-28 = tested on: SK-MEL-28
RPMI-8226 = tested on: RPMI-8226
SW-620 = tested on: SW-620
Malme-3M = tested on: Malme-3M
IGROV-1 = tested on: IGROV-1
SNB-78 = tested on: SNB-78
K562 = tested on: K562
MCF7 = tested on: MCF7
BT-549 = tested on: BT-549
OVCAR-5 = tested on: OVCAR-5
PC-3 = tested on: PC-3
CAKI-1 = tested on: CAKI-1
OVCAR-4 = tested on: OVCAR-4
HOP-92 = tested on: HOP-92
A498 = tested on: A498
T47D = tested on: T47D
SK-MEL-5 = tested on: SK-MEL-5
MDA-MB-231 = tested on: MDA-MB-231
NCI/ADR-RES = tested on: NCI/ADR-RES
MDA-MB-435 = tested on: MDA-MB-435
SK-MEL-2 = tested on: SK-MEL-2
DU-145 = tested on: DU-145
HT-29 = tested on: HT-29
MDA-N = tested on: MDA-N
Hs-578T = tested on: Hs-578T

Compound: COc1ccccc1-c1cc(=O)c2ccccc2[nH]1
- GI50 (UO-31): 60.7 µM (inactive)
- GI50 (NCI-H460): > 100 µM (inactive)
- GI50 (HL-60): 43.8 µM (inactive)
- GI50 (M14): 99.8 µM (inactive)
- GI50 (HOP-62): > 100 µM (inactive)
- GI50 (OVCAR-8): > 100 µM (inactive)
- GI50 (NCI-H226): 70.1 µM (inactive)
- GI50 (KM-20L2): > 100 µM (inactive)
- GI50 (SF-295): 40 µM (inactive)
- GI50 (SNB-75): 55.7 µM (inactive)
- GI50 (SF-539): > 100 µM (inactive)
- GI50 (A549): 54.3 µM (inactive)
- GI50 (HCT-116): > 100 µM (inactive)
- GI50 (TK-10): > 100 µM (inactive)
- GI50 (HCT-15): 55.1 µM
- GI50 (LXFL 529): > 100 µM (inactive)
- GI50 (SR): 55.1 µM (inactive)
- GI50 (COLO 205): > 100 µM (inactive)
- GI50 (ACHN): > 100 µM (inactive)
- GI50 (U-251): > 100 µM (inactive)
- GI50 (M19-MEL): > 100 µM (inactive)
- GI50 (CCRF-CEM): 66.7 µM (inactive)
- GI50 (NCI-H522): 33.9 µM (inactive)
- GI50 (EKVX): > 100 µM (inactive)
- GI50 (NCI-H23): > 100 µM (inactive)
- GI50 (786-0): > 100 µM (inactive)
- GI50 (SF-268): > 100 µM (inactive)
- GI50 (SN12C): > 100 µM (inactive)
- GI50 (DLD-1): > 100 µM (inactive)
- GI50 (SNB-19): > 100 µM (inactive)
- GI50 (SK-OV-3): 73.6 µM (inactive)
- GI50 (LOX IMVI): > 100 µM (inactive)
- GI50 (DMS-273): 57.9 µM (inactive)
- GI50 (UACC-62): 41.7 µM (inactive)
- GI50 (MOLT-4): 52 µM (inactive)
- GI50 (OVCAR-3): > 100 µM (inactive)
- GI50 (RXF 393): > 100 µM (inactive)
- GI50 (UACC-257): > 100 µM (inactive)
- GI50 (HCC 2998): 72.6 µM (inactive)
- GI50 (KM12): 63.7 µM (inactive)
- GI50 (SK-MEL-28): > 100 µM (inactive)
- GI50 (RPMI-8226): 70 µM (inactive)
- GI50 (SW-620): 40.4 µM (inactive)
- GI50 (Malme-3M): 49 µM (inactive)
- GI50 (IGROV-1): 99.8 µM (inactive)
- GI50 (SNB-78): > 100 µM (inactive)
- GI50 (K562): 36.1 µM (inactive)

Compound: O=S(=O)(O)c1c(Cl)c(Cl)c(O)c2ncccc12
- GI50 (UO-31): 7.08 µM (inactive)
- GI50 (NCI-H460): 7.36 µM (inactive)
- GI50 (HL-60): 1.87 µM (inactive)
- GI50 (M14): 12 µM (inactive)
- GI50 (HOP-62): 5 µM (inactive)
- GI50 (OVCAR-8): 10.3 µM (inactive)
- GI50 (NCI-H226): 20.9 µM (inactive)
- GI50 (SF-295): 7.06 µM (inactive)
- GI50 (SNB-75): 14.3 µM (inactive)
- GI50 (SF-539): 16 µM (inactive)
- GI50 (MCF7): 5.04 µM (inactive)
- GI50 (BT-549): 20.2 µM (inactive)
- GI50 (A549): 12.4 µM (inactive)
- GI50 (HCT-116): 5.56 µM (inactive)
- GI50 (TK-10): 12.5 µM (inactive)
- GI50 (HCT-15): 5.33 µM
- GI50 (SR): 6.3 µM (inactive)
- GI50 (COLO 205): 9.95 µM (inactive)
- GI50 (ACHN): 7.33 µM (inactive)
- GI50 (OVCAR-5): 16.7 µM (inactive)
- GI50 (U-251): 10.8 µM (inactive)
- GI50 (CCRF-CEM): 4.01 µM (inactive)
- GI50 (NCI-H522): 4.12 µM (inactive)
- GI50 (EKVX): 12.2 µM (inactive)
- GI50 (NCI-H23): 11.2 µM (inactive)
- GI50 (786-0): 8.02 µM (inactive)
- GI50 (PC-3): 10.8 µM (inactive)
- GI50 (SF-268): 3.79 µM (inactive)
- GI50 (SN12C): 14 µM (inactive)
- GI50 (SNB-19): 11.8 µM (inactive)
- GI50 (CAKI-1): 18.6 µM (inactive)
- GI50 (OVCAR-4): 8.99 µM (inactive)
- GI50 (HOP-92): 18.8 µM (inactive)
- GI50 (SK-OV-3): 13 µM (inactive)
- GI50 (LOX IMVI): 2.19 µM (inactive)
- GI50 (UACC-62): 8.34 µM (inactive)
- GI50 (MOLT-4): 3.33 µM (inactive)
- GI50 (OVCAR-3): 10.7 µM (inactive)
- GI50 (A498): 1 µM (active)
- GI50 (T47D): 7.08 µM (inactive)
- GI50 (RXF 393): 19.3 µM (inactive)
- GI50 (SK-MEL-5): 9.68 µM (inactive)
- GI50 (UACC-257): 14.9 µM (inactive)
- GI50 (HCC 2998): 13.5 µM (inactive)
- GI50 (KM12): 10.8 µM (inactive)
- GI50 (MDA-MB-231): 27.7 µM (inactive)
- GI50 (NCI/ADR-RES): 5.05 µM (inactive)
- GI50 (MDA-MB-435): 9.4 µM (inactive)
- GI50 (SK-MEL-28): 13 µM (inactive)
- GI50 (SK-MEL-2): 12.5 µM (inactive)
- GI50 (DU-145): 16.6 µM (inactive)
- GI50 (HT-29): 9.89 µM (inactive)
- GI50 (RPMI-8226): 10.6 µM (inactive)
- GI50 (SW-620): 10 µM (inactive)
- GI50 (MDA-N): 14.6 µM (inactive)
- GI50 (Malme-3M): 10.4 µM (inactive)
- GI50 (Hs-578T): 20.2 µM (inactive)
- GI50 (IGROV-1): 4.2 µM (inactive)
- GI50 (K562): 7.57 µM (inactive)

Compound: O=C(CC(=O)c1ccncc1)c1ccccc1
- GI50 (UO-31): > 74.5 µM (inactive)
- GI50 (NCI-H460): 32.9 µM (inactive)
- GI50 (HL-60): 1.01 µM (active)
- GI50 (M14): 78 µM (inactive)
- GI50 (HOP-62): 71.8 µM (inactive)
- GI50 (OVCAR-8): 59.6 µM (inactive)
- GI50 (NCI-H226): > 100 µM (inactive)
- GI50 (SF-295): > 83.8 µM (inactive)
- GI50 (SNB-75): > 63.8 µM (inactive)
- GI50 (SF-539): 63.5 µM (inactive)
- GI50 (MCF7): > 77.6 µM (inactive)
- GI50 (BT-549): > 100 µM (inactive)
- GI50 (A549): > 100 µM (inactive)
- GI50 (HCT-116): 75.2 µM (inactive)
- GI50 (TK-10): > 94.8 µM (inactive)
- GI50 (HCT-15): 35.9 µM
- GI50 (SR): 22.1 µM (inactive)
- GI50 (COLO 205): > 100 µM (inactive)
- GI50 (ACHN): 67.6 µM (inactive)
- GI50 (OVCAR-5): > 100 µM (inactive)
- GI50 (U-251): 49.7 µM (inactive)
- GI50 (CCRF-CEM): 11.9 µM (inactive)
- GI50 (NCI-H522): 67.3 µM (inactive)
- GI50 (EKVX): > 64.3 µM (inactive)
- GI50 (NCI-H23): 80.7 µM (inactive)
- GI50 (786-0): 66.4 µM (inactive)
- GI50 (PC-3): > 77.8 µM (inactive)
- GI50 (SF-268): 63.5 µM (inactive)
- GI50 (SN12C): 42.2 µM (inactive)
- GI50 (SNB-19): > 100 µM (inactive)
- GI50 (CAKI-1): > 100 µM (inactive)
- GI50 (OVCAR-4): > 100 µM (inactive)
- GI50 (HOP-92): > 87.1 µM (inactive)
- GI50 (SK-OV-3): > 100 µM (inactive)
- GI50 (LOX IMVI): 31.8 µM (inactive)
- GI50 (UACC-62): 88.7 µM (inactive)
- GI50 (MOLT-4): 38.1 µM (inactive)
- GI50 (OVCAR-3): > 85.3 µM (inactive)
- GI50 (A498): > 100 µM (inactive)
- GI50 (T47D): > 100 µM (inactive)
- GI50 (RXF 393): 81.3 µM (inactive)
- GI50 (SK-MEL-5): 90.4 µM (inactive)
- GI50 (UACC-257): > 85.7 µM (inactive)
- GI50 (HCC 2998): > 67.1 µM (inactive)
- GI50 (KM12): > 100 µM (inactive)
- GI50 (MDA-MB-231): > 100 µM (inactive)
- GI50 (NCI/ADR-RES): 24.3 µM (inactive)
- GI50 (MDA-MB-435): > 100 µM (inactive)
- GI50 (SK-MEL-28): > 100 µM (inactive)
- GI50 (SK-MEL-2): > 81.1 µM (inactive)
- GI50 (DU-145): > 100 µM (inactive)
- GI50 (HT-29): > 77.8 µM (inactive)
- GI50 (RPMI-8226): 52.5 µM (inactive)
- GI50 (SW-620): 73.1 µM (inactive)
- GI50 (MDA-N): > 71.1 µM (inactive)
- GI50 (Malme-3M): 40.3 µM (inactive)
- GI50 (Hs-578T): > 100 µM (inactive)
- GI50 (IGROV-1): > 100 µM (inactive)
- GI50 (K562): 45.1 µM (inactive)
